The source of these data is publication PMC11124341, “4-Hydroxybenzoic Acid-Based Hydrazide–Hydrazones as Potent Growth Inhibition Agents of Laccase-Producing Phytopathogenic Fungi That Are Useful in the Protection of Oilseed Crops” (Molecules, 2024).

In one assay the test system is Balb/3T3 cells. The experiment in a line: Antiproliferative assay in vitro (SRB). It counts as cell-based, mouse. To be noted: Mus musculus, BALB/3T3; 72 h exposure, SRB method; read-out: Average IC50 ± SD, Balb/3T3 line. On the procedure:
Antiproliferative tests were performed on a normal human breast cell line, MCF-10A, and a mouse embryonic fibroblast: Balb/3T3. Both cell lines were obtained from the American Type Culture Collection (Rockville, MD, USA). The cell lines were maintained in the Institute of Immunology and Experimental Therapy, Wroclaw, Poland. MCF-10A cells were cultured in the F-12 nutrient mixture (Gibco, Scotland, UK), supplemented with 5% horse serum (Gibco, Scotland, UK), […] (Vibrio cholerae Pacini), 10 μg/mL of hydrocortisone and 20 ng/mL of human epidermal growth factor (all from Sigma-Aldrich, Chemie GmbH, Steinheim, Germany). Balb/3T3 cells were cultured in Dulbecco medium (Gibco, Darmstadt, Germany) supplemented with 10% fetal bovine serum (Thermo Fisher Scientific, Waltham, MA, USA) and 2 mM l-glutamine (Sigma-Aldrich, St. Louis, MO, USA). All culture media contained antibiotics: 100 U/mL penicillin (Sigma-Aldrich, St. Louis, MO, USA) and 100 µg/mL streptomycin (Polfa-Tarchomin, Warsaw, Poland). Both cell lines were cultured during the entire experiment in a humid atmosphere at 37 °C and 5% CO2. Amistar 250 SC (fungicide) with active compound azoxystrobin was provided by the Institute of Soil Science and Plant Cultivation, National Research Institute in Pulawy, Department of Weed Science and Tillage Systems in Wroclaw, Poland […].
Twenty-four hours prior to the applications of the tested compounds, MCF-10A and Balb/3T3 cells were plated in 96-well plates at a density of 10^4 cells per well and cultured at 37 °C in a humid atmosphere saturated with 5% CO2 for 24 h. Stock solutions of the compounds were prepared ex tempore for each test by dissolving in DMSO. The cells were also exposed to the reference drugs: cis-platin (Accord, London, UK) (10–0.01 µg/mL) and DMSO (Sigma-Aldrich) (at the concentrations corresponding to those in the tested agent dilutions). The solutions were then diluted in culture medium RPMI 1640 + Opti-MEM (1:1) (both from Gibco, Scotland, UK), supplemented with 2 mM l-glutamine, 5% fetal bovine serum (all from Sigma-Aldrich Chemie GmbH, Steinheim, Germany). An assay was performed after 72 h of exposure to the tested compounds 13, 17, 18, 19, 25, 27, 30, 4-hba, 4-hbah, and 3,4,5-hba (0.5, 5.0, 50, and to 500 µM) and azoxystrobin fungicide (0.05, 0.5, 5.0 and 50 µM). The antiproliferative effect in vitro was determined by the SRB method (sulforhodamine B colorimetric assay). The optical densities of the samples were measured on the Synergy H4 photometer (BioTek Instruments, Winooski, VT, USA) at 540 nm. The results were calculated as 50% inhibitory concentration (IC50), namely the dose of the tested compound inhibiting proliferation of the tested cells by 50% as compared to the untreated control cells, in the Prolab-3 system based on Cheburator 0.4 software using the two-point method. Each test was repeated 3–5 times.
Cytotoxicity was performed on two normal cell lines: MCF -10A and Balb/3T3, using as controls cis-platin in the concentrations of 0.03 32, 0.3 32, 3.32 and 33.2 µM and azoxystrobin fungicide in the […]
were tested in the concentrations of 0.5, 5.0, 50, and 500 µM. The relation of compound concentration […]
Further, a comparison of the influence of each tested concentration in the group of tested compounds on cell lines was illustrated in Figure S130 a (MCF-10A) and b (Balb/T3T).
Table S4. Cytotoxicity results for compounds 13, 17, 18, 19, 25, 27, and 30 investigated on normal mammalian lines: MCF -10A and B alb/3T3 using Azoxystrobin (fungicide) and cis-platin as reference compounds.
Cytotoxicity profile presented as proliferation inhibition, % (y -axis) in the function of compound concentration, […]
Structure MCF-10A Balb/3T3
Proliferation inhibition [%] […]
In general terms: In SRB staining, fixed cells bind dye roughly in proportion to their protein.

Assay [1] has as its target laccase from Trametes versicolor. The conditions noted are these: read-out: Laccase inhibition, Ki; cited from earlier work.

Take `O=C(N/N=C/c1cc(O)ccc1O)c1ccc(O)cc1` [compound 13]: in the assay on Balb/3T3 cells, the IC50 turned out to be 132 ± 9.22 µM.

In general, Ki refers to a measure of affinity in units of concentration, obtained from inhibition or displacement. In the case of `COc1cc(/C=N/NC(=O)c2ccc(O)cc2)ccc1O` [compound 17], the inhibition constant (Ki) in assay [1] is 251 µM. Besides, in the assay with Balb/3T3 cells, the IC50 amounted to 217 ± 61.2 µM.

As to `CC(C)(C)c1cccc(/C=N/NC(=O)c2ccc(O)cc2)c1O` [compound 18], the inhibition constant (Ki) in assay [1] is 24 µM. For the same molecule, the IC50 in the assay on Balb/3T3 cells stood at 11.4 ± 2.54 µM.

For `O=C(N/N=C/c1cccc(-c2ccccc2)c1O)c1ccc(O)cc1` [compound 19], in assay [1], the Ki was 25.3 µM. Moreover, the IC50 in the assay with Balb/3T3 cells is 3.97 ± 0.15 µM.

As for `Cc1cc(/C=N/NC(=O)c2ccc(O)cc2)c(O)c(CO)c1` [compound 25], the Ki in assay [1] is at least 1000 µM. Besides, the IC50 in the assay on Balb/3T3 cells was 27.2 ± 4.3 µM.

Take `CC(C)(C)c1cc(/C=N/NC(=O)c2ccc(O)cc2)c(O)c(C(C)(C)C)c1` [compound 27]: the Ki in assay [1] was 17.9 µM. The IC50 in the assay with Balb/3T3 cells was 11.7 ± 0.69 µM.

In the case of `Cc1cc(/C=N/NC(=O)c2ccc(O)cc2)c(O)c(C(C)(C)C)c1` [compound 30], the Ki in assay [1] was 26.4 µM. For the same molecule, in the assay on Balb/3T3 cells, the IC50 worked out at 23.1 ± 3.87 µM.
